In ChEMBL document CHEMBL3425470, “Discovery of imidazopyridine derivatives as highly potent respiratory syncytial virus fusion inhibitors” (ACS Med Chem Lett, 2015):
Converted amounts (≈) assume the structure as drawn.

Experiments:
[1] = Antiviral activity against Respiratory syncytial virus A infected in human Hep2 cells assessed as reduction of virus-induced cytopathic effect after 6 days by CCK-8 assay; format: functional, cell-based, Respiratory syncytial virus type A; conditions: HEp-2, 144 h
[2] = Cytotoxicity against human Hep2 cells assessed as cell viability after 6 days by CCK-8 assay
[3] = Solubility of the compound in phosphate buffer at pH 6.5 after overnight incubation by LYSA method
[4] = Clearance in human liver microsomes at 1 uM
[5] = Clearance in mouse liver microsomes at 1 uM
in vitro = conditions: PAMPA
Description: Permeability of the compound at 150 uM by PAMPA

Cytochrome P450 2D6 = Cytochrome P450 2D6 (Homo sapiens, UniProt P10635); assay: Inhibition of CYP2D6 in human liver microsomes by LC-MS/MS analysis
Sequence of Cytochrome P450 2D6 (P10635 whole entry): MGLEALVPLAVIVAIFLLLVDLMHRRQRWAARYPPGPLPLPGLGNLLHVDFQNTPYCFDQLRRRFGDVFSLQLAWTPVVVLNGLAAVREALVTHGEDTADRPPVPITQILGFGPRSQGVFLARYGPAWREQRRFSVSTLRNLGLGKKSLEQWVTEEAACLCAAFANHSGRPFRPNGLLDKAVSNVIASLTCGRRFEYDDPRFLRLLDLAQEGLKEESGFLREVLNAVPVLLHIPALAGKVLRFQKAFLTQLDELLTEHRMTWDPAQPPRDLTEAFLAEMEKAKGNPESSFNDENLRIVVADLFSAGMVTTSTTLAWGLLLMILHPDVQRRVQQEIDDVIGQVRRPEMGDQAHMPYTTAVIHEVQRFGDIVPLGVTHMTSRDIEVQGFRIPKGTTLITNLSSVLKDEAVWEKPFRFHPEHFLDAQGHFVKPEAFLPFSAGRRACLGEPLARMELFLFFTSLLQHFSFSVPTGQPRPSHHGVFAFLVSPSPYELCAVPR

Cytochrome P450 2C9 = Cytochrome P450 2C9 (Homo sapiens, UniProt P11712); assay: Inhibition of CYP2C9 in human liver microsomes by LC-MS/MS analysis
Sequence of Cytochrome P450 2C9 (P11712 whole entry): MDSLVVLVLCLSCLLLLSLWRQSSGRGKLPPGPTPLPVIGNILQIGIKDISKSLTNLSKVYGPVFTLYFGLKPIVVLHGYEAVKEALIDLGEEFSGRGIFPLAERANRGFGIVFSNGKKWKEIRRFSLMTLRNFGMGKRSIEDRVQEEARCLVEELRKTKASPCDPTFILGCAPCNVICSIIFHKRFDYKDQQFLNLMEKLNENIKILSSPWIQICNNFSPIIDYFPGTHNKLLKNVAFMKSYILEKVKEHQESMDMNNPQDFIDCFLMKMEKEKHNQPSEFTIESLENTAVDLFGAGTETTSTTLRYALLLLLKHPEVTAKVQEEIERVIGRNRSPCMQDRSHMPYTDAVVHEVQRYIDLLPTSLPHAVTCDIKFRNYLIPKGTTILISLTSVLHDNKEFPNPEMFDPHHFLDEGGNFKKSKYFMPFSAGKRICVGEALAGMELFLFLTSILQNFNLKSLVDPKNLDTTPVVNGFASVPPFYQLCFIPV

Cytochrome P450 3A4 = Cytochrome P450 3A4 (Homo sapiens, UniProt P08684); assay: Inhibition of CYP3A4 in human liver microsomes by LC-MS/MS analysis
Sequence of Cytochrome P450 3A4 (P08684 whole entry): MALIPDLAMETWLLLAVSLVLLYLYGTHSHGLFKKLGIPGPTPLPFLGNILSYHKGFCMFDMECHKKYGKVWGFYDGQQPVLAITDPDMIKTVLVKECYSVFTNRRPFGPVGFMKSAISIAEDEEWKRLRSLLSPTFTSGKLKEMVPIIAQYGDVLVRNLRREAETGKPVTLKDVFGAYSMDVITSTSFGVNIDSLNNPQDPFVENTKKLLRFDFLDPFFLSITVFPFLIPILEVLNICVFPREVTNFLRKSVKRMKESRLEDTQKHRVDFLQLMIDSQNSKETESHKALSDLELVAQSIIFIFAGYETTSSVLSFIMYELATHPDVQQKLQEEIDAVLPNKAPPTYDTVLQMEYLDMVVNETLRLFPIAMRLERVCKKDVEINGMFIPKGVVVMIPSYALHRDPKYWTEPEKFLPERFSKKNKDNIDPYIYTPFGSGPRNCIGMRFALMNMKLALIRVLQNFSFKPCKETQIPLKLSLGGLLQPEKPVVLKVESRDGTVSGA

| SMILES | EC50 [1] | CC50 at 144 h ([2]; Hep2 cells) | further results |
| --- | --- | --- | --- |
| O=c1n(Cc2nc3ccccc3n2CCCCO)c2cnccc2n1C1CC1 | 0.028 µM |  |  |
| Cc1ccc2nc(Cn3c(=O)n(C4CC4)c4ccncc43)c(CCCCO)n2c1 | 0.217 µM | > 100 µM |  |
| O=c1n(Cc2nc3ccc(F)cn3c2CCCCO)c2cnccc2n1C1CC1 | 0.096 µM | > 100 µM |  |
| O=c1n(Cc2nc3ccc(Cl)cn3c2CCCCO)c2cnccc2n1C1CC1 | 0.422 µM | > 100 µM |  |
| O=c1n(Cc2nc3ccc(C(F)(F)F)cn3c2CCCCO)c2cnccc2n1C1CC1 | 2.89 µM | > 100 µM |  |
| Cc1ccn2c(CCCCO)c(Cn3c(=O)n(C4CC4)c4ccncc43)nc2c1 | 0.006 µM | > 100 µM |  |
| CCc1ccn2c(CCCCO)c(Cn3c(=O)n(C4CC4)c4ccncc43)nc2c1 | 0.007 µM | > 100 µM |  |
| O=c1n(Cc2nc3cc(F)ccn3c2CCCCO)c2cnccc2n1C1CC1 | 0.023 µM | > 100 µM |  |
| O=c1n(Cc2nc3ccccn3c2CCCCO)c2cnccc2n1C1CC1 | 0.017 µM | > 100 µM |  |
| O=c1n(Cc2nc3cc(C(F)(F)F)ccn3c2CCCCO)c2cnccc2n1C1CC1 | 0.217 µM | > 100 µM |  |
| O=c1n(Cc2nc3cc(Cl)ccn3c2CCCCO)c2cnccc2n1C1CC1 | 0.007 µM | > 100 µM | solubility [3]: 20 µg/mL (≈ 48.6 µM); CLhep predicted at 1 µM [4]: 11.5 mL/min/kg; CLhep predicted at 1 µM [5]: 80 mL/min/kg; Papp at 150 µM (in vitro): 3.1 ×10⁻⁶ cm/s |
| O=c1n(Cc2cn3ccc(Cl)cc3n2)c2cnccc2n1C1CC1 | 3.06 µM | 22.3 µM |  |
| N#Cc1c(Cn2c(=O)n(C3CC3)c3ccncc32)nc2cc(Cl)ccn12 | 0.086 µM | 22.5 µM |  |
| O=c1n(Cc2nc3cc(Cl)ccn3c2CO)c2cnccc2n1C1CC1 | 1.93 µM | > 100 µM |  |
| O=C(O)c1c(Cn2c(=O)n(C3CC3)c3ccncc32)nc2cc(Cl)ccn12 | 25.5 µM | > 100 µM |  |
| O=C(NCCO)c1c(Cn2c(=O)n(C3CC3)c3ccncc32)nc2cc(Cl)ccn12 | 2.23 µM | > 100 µM |  |
| CS(=O)(=O)CCNC(=O)c1c(Cn2c(=O)n(C3CC3)c3ccncc32)nc2cc(Cl)ccn12 | 0.082 µM | > 100 µM |  |
| O=C(O)/C=C/c1c(Cn2c(=O)n(C3CC3)c3ccncc32)nc2cc(Cl)ccn12 | 0.207 µM | > 100 µM |  |
| O=C(O)CCc1c(Cn2c(=O)n(C3CC3)c3ccncc32)nc2cc(Cl)ccn12 | 0.053 µM |  | solubility [3]: 541 µg/mL (≈ 1310 µM); IC50 (Cytochrome P450 2D6): > 50 µM; CLhep predicted at 1 µM [5]: 9.1 mL/min/kg; IC50 (Cytochrome P450 2C9): > 50 µM; Papp at 150 µM (in vitro): 0.3 ×10⁻⁶ cm/s; CC50 at 144 h ([2]; hep-2): > 100 µM; IC50 (Cytochrome P450 3A4): > 50 µM |
| NC(=O)CCc1c(Cn2c(=O)n(C3CC3)c3ccncc32)nc2cc(Cl)ccn12 | 0.005 µM | > 100 µM | solubility [3]: 87 µg/mL (≈ 212 µM); CLhep predicted at 1 µM [4]: 13.5 mL/min/kg; CLhep predicted at 1 µM [5]: 59 mL/min/kg; Papp at 150 µM (in vitro): 2.5 ×10⁻⁶ cm/s |
| O=C(CCc1c(Cn2c(=O)n(C3CC3)c3ccncc32)nc2cc(Cl)ccn12)NCCO | 0.01 µM | > 100 µM | solubility [3]: 107 µg/mL (≈ 235 µM); CLhep predicted at 1 µM [4]: 2.9 mL/min/kg; CLhep predicted at 1 µM [5]: 47 mL/min/kg; Papp at 150 µM (in vitro): 0.96 ×10⁻⁶ cm/s |
| CS(=O)(=O)NC(=O)CCc1c(Cn2c(=O)n(C3CC3)c3ccncc32)nc2cc(Cl)ccn12 | 0.046 µM | > 100 µM |  |
| CS(=O)(=O)CCc1c(Cn2c(=O)n(C3CC3)c3ccncc32)nc2cc(Cl)ccn12 | 0.006 µM | > 100 µM | solubility [3]: 59 µg/mL (≈ 132 µM); CLhep predicted at 1 µM [4]: 2.5 mL/min/kg; IC50 (Cytochrome P450 2D6): > 50 µM; CLhep predicted at 1 µM [5]: 35 mL/min/kg; IC50 (Cytochrome P450 2C9): > 50 µM; Papp at 150 µM (in vitro): 3.6 ×10⁻⁶ cm/s; IC50 (Cytochrome P450 3A4): > 50 µM |
| CCS(=O)(=O)CCc1c(Cn2c(=O)n(C3CC3)c3ccncc32)nc2cc(Cl)ccn12 | 0.003 µM |  | solubility [3]: 46 µg/mL (≈ 100 µM); CLhep predicted at 1 µM [4]: 4.6 mL/min/kg; IC50 (Cytochrome P450 2D6): > 50 µM; CLhep predicted at 1 µM [5]: 62 mL/min/kg; IC50 (Cytochrome P450 2C9): > 50 µM; Papp at 150 µM (in vitro): 2.6 ×10⁻⁶ cm/s; CC50 at 144 h ([2]; hep-2): > 100 µM; IC50 (Cytochrome P450 3A4): > 50 µM |
| CCCCNc1c(Cn2c(=O)n(C3CC3)c3ccncc32)nc2cc(Cl)ccn12 | 0.041 µM | > 100 µM |  |
| O=c1n(Cc2nc3cc(Cl)ccn3c2NC2CCCCC2)c2cnccc2n1C1CC1 | 0.072 µM | > 100 µM |  |
| O=c1n(Cc2nc3cc(Cl)ccn3c2NCCN2CCOCC2)c2cnccc2n1C1CC1 | 0.083 µM | > 100 µM |  |
| O=c1n(Cc2nc3cc(Cl)ccn3c2CNCCO)c2cnccc2n1C1CC1 | 0.683 µM | > 100 µM |  |
| CS(=O)(=O)c1ccc(-c2c(Cn3c(=O)n(C4CC4)c4ccncc43)nc3cc(Cl)ccn23)cc1 | 0.089 µM | > 100 µM |  |
